Results from patent US9211278B2, “Composition containing arylnaphthalene lignan derivative for preventing and/or treating dementia” (KOREA INSTITUTE OF SCIENCE AND TECHNOLOGY, priority 2012, dated 2015).

Key:
male ICR mouse = assay: Novel object recognition test, scopolamine-impaired memory model; type: in vivo; conditions: oral, 10 mg/kg and 20 mg/kg; compared with 2 mg/kg Donepezil
Procedure: The male ICR mouse was 5 to 6-week age (25˜30 g of body weight) (Orientbio Inc., Seougnam, Republic of Korea), and was raised with solid feed and tap water for 1 week before being used for test. For 3 days before the test, each mouse to get adjusted to Arena (grey mat acryl material, 50 cm×50 cm×60 cm) went freely into the Arena for 10 minutes per a day.
At a first day, the normal control group and the group administered by the scopolamine were fed with 5% (v/v) DMSO-saline, the test group was orally administered by 1, 5, 10 and 20 mg/kg/10 ml of Justicidin A (C1) in 5% DMSO-Saline, and the comparative group was administered with 2 mg/kg/10 ml of Donepezil (brand name: Aricept, Eisai) being commercially available as a drug for treating an dementia of the Alzheimer's type. After 30 minutes, the groups were intraperitoneally injected by scopolamine (Sigma-Aldrich Chemical Co., St Louis, USA) at 1 mg/kg/10 ml. […]
At the second day, the mice were dropped into the Arena without treatment of additional drug and scopolamine. […] Entire test was automatically recorded and analyzed with Noldus Ethovision 7.0 program (Noldus Information Technology, USA). The time when the mice sought the object in 3 minutes after dropping two objects at second day of test were measured and calculated as Memory Index (%, ratio of time for Novel object recognition to entire time for recognition). […]

Aβ42 = target: T1, Aβ42 (Homo sapiens, UniProt P05067); assay: Aβ fibril formation, Thioflavin T (ThT) fluorescence assay; type: biochemical
T1 construct: Aβ42 of 42 amino acids
T1 sequence (P05067 672-713 limits assumed): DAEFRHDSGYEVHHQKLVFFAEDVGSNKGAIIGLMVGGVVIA
Procedure: Fibril formation by concentrated Aβ is Alzheimer's representative symptom and has been focused on recently. The concentrated Aβ was measured by Thioflavin T (ThT) fluorescence assay, as chemical process was artificially generated.
For formation of Aβ fibril, Aβ42 was melt in 1,1,1,3,3,3-hexafluoro-2-propanol (HFIP) up to 1 mg/ml, then injected to 96-well plate, the concentration of Aβ42 was 10 uM each well, HFIP was evaporated shortly before the beginning of the experiment. Various concentrations of Justicidin A and a certain amount of 5 uM ThT were added, and Fluorescence intensity was measured at various times by Tecan infinite M1000 microplate reader (Tecan, Switzerland).

## COc1cc2c(OC)c3c(c(-c4ccc5c(c4)OCO5)c2cc1OC)C(=O)OC3 [Justicidin A]
Male ICR mouse
  memory and learning ability (Memory Index): showed high memory and learning ability
Aβ42; 5 uM, read-out: inhibition of formation of Aβ fibril compared to the control group
  inhibition at 5 µM: 52%
Aβ42; various concentrations, up to 36 hrs
  inhibition of formation of Aβ fibril: inhibited the formation of Aβ fibril in a concentration-dependent manner
